Molecules are shown by their SMILES. pIC50: −log10 of the molar value.

In this experiment the target is T1, hSCN3A sodium channels (Homo sapiens, UniProt Q9NY46).
T1 construct: expressed in transfected cells
T1 sequence (Q9NY46 whole entry): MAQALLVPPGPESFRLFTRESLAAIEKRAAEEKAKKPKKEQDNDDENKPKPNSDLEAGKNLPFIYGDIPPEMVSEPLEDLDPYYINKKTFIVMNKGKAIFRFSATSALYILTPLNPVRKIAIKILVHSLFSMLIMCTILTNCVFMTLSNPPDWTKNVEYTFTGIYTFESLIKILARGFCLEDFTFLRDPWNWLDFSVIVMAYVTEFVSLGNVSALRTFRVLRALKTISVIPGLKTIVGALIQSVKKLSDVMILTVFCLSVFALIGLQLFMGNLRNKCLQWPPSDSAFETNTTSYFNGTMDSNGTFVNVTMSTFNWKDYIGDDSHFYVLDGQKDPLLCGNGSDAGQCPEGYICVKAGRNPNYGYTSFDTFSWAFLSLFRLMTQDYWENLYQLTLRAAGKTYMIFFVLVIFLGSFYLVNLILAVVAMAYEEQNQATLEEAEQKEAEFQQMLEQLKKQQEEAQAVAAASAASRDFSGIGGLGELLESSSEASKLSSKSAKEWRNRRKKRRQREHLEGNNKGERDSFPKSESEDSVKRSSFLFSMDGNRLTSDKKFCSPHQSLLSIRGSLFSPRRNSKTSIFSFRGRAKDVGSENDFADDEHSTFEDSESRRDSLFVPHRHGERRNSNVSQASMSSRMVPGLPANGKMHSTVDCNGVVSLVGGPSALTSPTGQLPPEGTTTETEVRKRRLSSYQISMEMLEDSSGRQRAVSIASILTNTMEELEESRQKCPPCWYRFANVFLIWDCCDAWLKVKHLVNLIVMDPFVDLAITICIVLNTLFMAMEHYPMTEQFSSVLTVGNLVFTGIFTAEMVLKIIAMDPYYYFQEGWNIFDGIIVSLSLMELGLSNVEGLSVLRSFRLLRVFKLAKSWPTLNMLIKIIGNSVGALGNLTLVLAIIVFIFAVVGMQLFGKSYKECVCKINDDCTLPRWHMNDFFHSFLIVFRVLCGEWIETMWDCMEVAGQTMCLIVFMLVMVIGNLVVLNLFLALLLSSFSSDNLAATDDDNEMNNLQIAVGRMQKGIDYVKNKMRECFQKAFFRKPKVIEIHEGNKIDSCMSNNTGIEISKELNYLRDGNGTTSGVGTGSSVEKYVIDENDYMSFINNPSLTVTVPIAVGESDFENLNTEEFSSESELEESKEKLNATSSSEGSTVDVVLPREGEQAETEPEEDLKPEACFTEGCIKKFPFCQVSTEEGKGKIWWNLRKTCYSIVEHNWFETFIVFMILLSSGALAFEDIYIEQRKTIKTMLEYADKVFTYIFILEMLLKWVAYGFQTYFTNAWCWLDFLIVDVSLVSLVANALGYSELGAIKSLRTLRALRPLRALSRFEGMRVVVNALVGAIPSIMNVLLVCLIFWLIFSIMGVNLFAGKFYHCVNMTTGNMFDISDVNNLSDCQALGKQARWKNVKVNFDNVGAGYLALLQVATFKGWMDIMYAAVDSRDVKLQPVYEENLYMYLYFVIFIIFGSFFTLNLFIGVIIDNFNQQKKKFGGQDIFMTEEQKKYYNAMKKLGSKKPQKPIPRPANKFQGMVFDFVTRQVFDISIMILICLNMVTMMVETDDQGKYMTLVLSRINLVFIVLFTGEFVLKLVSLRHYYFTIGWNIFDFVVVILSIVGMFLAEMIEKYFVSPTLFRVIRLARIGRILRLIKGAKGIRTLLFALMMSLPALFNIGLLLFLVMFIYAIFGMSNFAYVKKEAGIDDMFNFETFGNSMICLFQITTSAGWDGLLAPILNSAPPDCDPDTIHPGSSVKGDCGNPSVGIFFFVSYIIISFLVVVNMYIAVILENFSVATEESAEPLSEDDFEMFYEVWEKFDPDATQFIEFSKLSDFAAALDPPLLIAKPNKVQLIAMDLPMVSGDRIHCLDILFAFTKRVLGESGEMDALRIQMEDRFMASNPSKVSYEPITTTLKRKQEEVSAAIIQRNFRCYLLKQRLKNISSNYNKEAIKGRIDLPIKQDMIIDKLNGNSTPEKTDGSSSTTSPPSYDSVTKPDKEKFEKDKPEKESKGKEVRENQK
Kind of experiment: hSCN3A electrophysiology, whole-cell patch-clamp or PatchXpress 7000, estimated IC-50 (Table B). It counts as cell-based. Particulars: estimated IC-50; hSCN3A cells, whole-cell patch-clamp or PatchXpress 7000; read-out: SCN3A EIC-50. The gist of the method: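 A 20 msec test pulse to 0 mV followed an 8 sec conditioning prepulse at each cell's measured V1/2. Room-temperature (22-24° C) recordings on HEK cells stably expressing the channel, conventional or PatchXpress.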
Regarding `N#Cc1ccc(OC2CCCN(C(=O)c3ccc(S(=O)(=O)Nc4nccs4)cc3)C2)cc1F` (stereo not drawn) [Example 193, 4-{[3-(4-Cyano-3-fluorophenoxy)piperidin-1-yl]carbonyl}-N-1,3-thiazol-2-yl-benzenesulfonamide], the pIC50 was 5.49.
The result for `O=C(NCCOc1cccc(Cl)c1)c1ccc(S(=O)(=O)Nc2nccs2)cc1` [Example 144, N-[2-(3-chlorophenoxy)ethyl]-4-[(1,3-thiazol-2-ylamino)sulfonyl]benzamide] reads 5.93; that for `O=C(NCc1ccc(C(F)(F)F)cc1)c1ccc(S(=O)(=O)Nc2ncc(Cl)s2)cn1` [Example 344, 5-{[(5-Chloro-1,3-thiazol-2-yl)amino]sulfonyl}-N-[4-(trifluoromethyl)benzyl]pyridine-2-carboxamide], 6.28; that for `O=C(NCc1ccc(OC(F)(F)F)cc1)c1ccc(S(=O)(=O)Nc2nccs2)cc1` [Example 402, 4-[(1,3-Thiazol-2-ylamino)sulfonyl]-N-[4-(trifluoromethoxy)benzyl]benzamide], 6.72.
On to `O=C(Nc1nccc2ccccc12)c1ccc(S(=O)(=O)Nc2nccs2)cc1` [Example 117, N-isoquinolin-1-yl-4-[(1,3-thiazol-2-ylamino)sulfonyl]benzamide], for which the pIC50 is 4.90.
The result for `O=C(NCc1ccc(OC(F)(F)F)c(F)c1)c1ccc(S(=O)(=O)Nc2ncns2)cc1Cl` [Example 376, 2-Chloro-N-[3-fluoro-4-(trifluoromethoxy)benzyl]-4-[(1,2,4-thiadiazol-5-ylamino)sulfonyl] benzamide] reads 6.23; that for `O=C(NC1(c2ccc(Cl)cc2)CC1)c1ccc(S(=O)(=O)Nc2nccs2)cc1` [Example 139, N-[1-(4-chlorophenyl)cyclopropyl]-4-[(1,3-thiazol-2-ylamino)sulfonyl]benzamide], 5.78.
The value for `O=C(NCc1ccc(C(F)(F)F)cc1)c1ccc(S(=O)(=O)Nc2ncc(Cl)s2)c(Cl)c1` [Example 373, 3-Chloro-4-{[(5-chloro-1,3-thiazol-2-yl)amino]sulfonyl}-N-[4-(trifluoromethyl)benzyl] benzamide] was 6.31.
Consider `O=C(NCc1ccc(Cl)c(Cl)c1)c1ccc(S(=O)(=O)Nc2nccs2)cc1` [Example 388, N-(3,4-dichlorobenzyl)-4-[(1,3-thiazol-2-ylamino)sulfonyl]benzamide], for which the pIC50 was 6.96.
The value for `Cc1ccc(CNC(=O)c2ccc(S(=O)(=O)Nc3nccs3)cc2)cc1F` [Example 62, N-(3-fluoro-4-methylbenzyl)-4-[(1,3-thiazol-2-ylamino)sulfonyl]benzamide] was 5.99; that for `Cc1nnc(NS(=O)(=O)c2ccc(C(=O)NCc3ccc(C(F)(F)F)cc3)cc2)s1` [Example 11, 4-{[(5-Methyl-1,3,4-thiadiazol-2-yl)amino]sulfonyl}-N-[4-(trifluoromethyl)benzyl]benzamide] was 5.59.
For `O=C(Nc1ccc2c(n1)CCC2)c1ccc(S(=O)(=O)Nc2nccs2)cc1` [Example 172, N-(6,7-dihydro-5H-cyclopenta[b]pyridin-2-yl)-4-[(1,3-thiazol-2-ylamino)sulfonyl]benzamide], the pIC50 was 5.19.
The result for `O=C(NCc1ccc(C(F)(F)F)c(Cl)c1)c1ccc(S(=O)(=O)Nc2ncns2)c(F)c1` [Example 317, N-[3-chloro-4-(trifluoromethyl)benzyl]-3-fluoro-4-[(1,2,4-thiadiazol-5-ylamino)sulfonyl]benzamide] reads 7.40; that for `O=C(NCc1ccc(C(F)(F)F)c(F)c1)c1ccc(S(=O)(=O)Nc2nccs2)c(Cl)c1` [Example 289, 3-Chloro-N-[3-fluoro-4-(trifluoromethyl)benzyl]-4-[(1,3-thiazol-2-yl-amino)sulfonyl]benzamide], 6.47; that for `O=C(NCc1ccc(Cl)c(C(F)(F)F)c1)c1ccc(S(=O)(=O)Nc2nccs2)cc1` [Example 395, N-[4-chloro-3-(trifluoromethyl)benzyl]-4-[(1,3-thiazol-2-ylamino)sulfonyl]benzamide], 7.52.

The record behind these values is patent publication US8741934B2, “Inhibitors of ion channels” (Pfizer Limited, priority 2007, dated 2014).
